Activity calls are given as the source filed them.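 The calls were made as follows: active = compounds lowering cell viability signal with fitted half-maximal concentration at most ten times their highest tested concentration; inconclusive = flat fit with 30 to 70% signal loss, or poor fit; inactive = the rest.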

This assay relates to HEK293T viability, CellTiter-Glo ATP luminescence, 48 h. Kind of assay: cytotoxicity in HEK293T cells – cell-based, CellTiter-Glo luminescence, cherry-picks, cytotoxicity control for LMP1 NF-kB inhibitor project, dose response (AID 504861). (ATP-based viability assays read luminescence as a measure of living cells.)
In the case of `CCN(CC)c1ccc(/C=N/Nc2nc(C)cc(=O)[nH]2)c(O)c1`, the AC50 (commonly the midpoint of the concentration-response curve, whichever way the signal moves) is 1.41 µM. The same measure for `Cc1cc(Sc2nnc(N)s2)c2ccccc2n1`: 3.34 µM; for `O=C(CCl)N(c1ccc(Cl)cc1)c1c[nH]c2ccccc12`: 1.19 µM; for `CCCC(=O)NC(c1cccc([N+](=O)[O-])c1)c1ccc2cccnc2c1O` (stereo not given): 3.59 µM. The value for `COc1cc(C=C2CCCC(=Cc3ccc(OCC4CO4)c(OC)c3)C2=O)ccc1OCC1CO1` (stereo not given) was 24.3 µM; that for `CCN1CCN(Cc2ccc(NC(=O)c3ccc(C)c(/C=C/c4cnc(Nc5cc(N6CCNCC6)nc(C)n5)cn4)c3)cc2C(F)(F)F)CC1` was 14.3 µM. On to `COc1ccc(OCc2cccc(C(=O)NN)c2)cc1`, for which the AC50 was > 26 µM (inactive). On to `CC(C)CC(=NNC(=O)c1ccncc1)c1cc(Cl)ccc1O`, for which the AC50 is 3.12 µM. The value for `CC(=NNC(=S)N1CCCC1)c1ccccn1` was 4.56 µM. The same measure for `CC(=NNC(=S)Nc1ccc(C)cc1)c1ccccn1`: 0.624 µM; for `O=C(N/N=C/c1c(O)ccc2ccccc12)c1ccc(Br)o1`: 4.46 µM. The value for `COc1ccccc1-c1nc(-c2ccccn2)no1` was 5.63 µM; that for `CC(=O)NC(c1ccc2ccccc2c1)c1ccc2cccnc2c1O` (stereo not given) was 1.32 µM; that for `CCOc1cccc(/C=N/Nc2ccc(S(=O)(=O)N(CC)CC)cn2)c1O` was 1.69 µM. For `C=CCn1c(O)c(N=NC(=S)Nc2cccc(C)c2)c2ccccc21`, the AC50 is > 26 µM (inactive). With `CCC(NC(=O)Nc1nnc(C(F)(F)F)s1)(C(F)(F)F)C(F)(F)F`, the AC50 was 9.8 µM. The same measure for `CC(C)C(=O)NC(c1cccc([N+](=O)[O-])c1)c1ccc2cccnc2c1O` (stereo not given): 4.33 µM.

On to `COc1cc([C@@H]2c3cc4c(cc3[C@@H](O[C@@H]3O[C@@H]5CO[C@@H](C)O[C@H]5[C@H](O)[C@H]3O)[C@H]3COC(=O)[C@H]23)OCO4)cc(OC)c1O`, for which the AC50 is 26.5 µM.

For `CCN(CC)c1ccc(C(NC(=O)C(C)C)c2ccc3cccnc3c2O)cc1` (stereo not given), the AC50 is 4.34 µM.

Take `COc1cc2c(cc1OC)C(c1ccc(-c3ccccc3Cl)o1)=NCC2`: the AC50 is 21 µM. The value for `CCCCC(=O)NC(c1cccc([N+](=O)[O-])c1)c1ccc2cccnc2c1O` (stereo not given) was 3.93 µM; that for `CCOc1ccc(OCC(=O)Nc2nccs2)cc1` was 11.3 µM.

`COc1ccc(Cc2nnc(N/N=C/c3ccc(O)cc3)[nH]c2=O)cc1OC`: the AC50 was 3.56 µM. For the molecule `O=C(Nc1ccc2c(c1)OCCO2)c1ccccn1`, the AC50 was 21.2 µM. The value for `COc1ccccc1/C=C/C(=O)c1ccc(Cl)cc1` was 12.4 µM; that for `CC(=O)OC1CCC2(C)C(CCC3C4CC=C(C(C)=O)C4(C)OC(=O)CC32)C1` (stereo not given) was 4.45 µM; that for `COc1cccc(/C=N/Nc2ncnc(Cl)c2N)c1O` was 3.23 µM.

With `COc1cccc(/C=N/Nc2nccnc2Cl)c1O`, the AC50 is 3.79 µM. As for `CCC(C)Nc1nc(-c2ccccn2)nc2ccccc12` (stereo not given), the AC50 was 4.04 µM.

Consider `CCN(CC)c1ccc(/C=N/NC(=O)c2c(Cl)cnn2C)c(O)c1`, for which the AC50 was 2.81 µM. The same measure for `CC(C)C(=O)NC(c1ccc(Cl)cc1Cl)c1ccc2cccnc2c1O` (stereo not given): 3 µM. As to `CC(=NNc1nc2ccccc2o1)c1ncccn1`, the AC50 is 16 µM.

Turning to `CC(=O)NC(c1ccc(Cl)cc1Cl)c1ccc2cccnc2c1O` (stereo not given), the AC50 is 1.63 µM.

As for `CCCCC(=O)NC(c1ccc(Cl)cc1Cl)c1ccc2cccnc2c1O` (stereo not given), the AC50 is 3.16 µM.

For the molecule `NC(=S)NN=Cc1nccc2c(C(F)(F)C(F)(F)C(F)(F)F)cccc12`, the AC50 is 1.52 µM. The value for `COc1ccc2[nH]c(-c3ccc(C)cc3)cc(=O)c2c1` was > 26 µM (inactive).

On to `C=CCNC(=S)N/N=C(\C)c1ccccn1`, for which the AC50 is 2.06 µM. Turning to `CC(=NNC(=S)N1CCCCCC1)c1ccccn1`, the AC50 is 2.18 µM. The same measure for `COc1cccc(N=Nc2ccc(O)c3ncccc23)c1`: 2.88 µM; for `C(=Cc1cnc2ccccc2n1)c1ccc2c(c1)OCO2`: 1.74 µM.
